# System: capsaicin-sensitive sensory nerve
# Assay: Capsaicin-induced Evans Blue pigment leakage into mouse bladder (capsaicin-sensitive sensory nerve inhibition)
# Type: in vivo
# Settings: for inhibition of capsaicin-sensitive sensory nerve (summary): female Balb/c mouse bladder, capsaicin stimulation
# Method: A female Balb/c mouse (Japan SLC) which had been anesthetized by intraperitoneally administering 0.15 ml of 20% urethane was subjected to tracheal cannulation, using a polyethylene tube PE 50. A polyethylene tube PE 10 was inserted into the bladder via a urethra, and hydrochloride of ethyl (−)-2-[4-[2-[[(1S,2R)-2-hydroxy-2-(4-hydroxyphenyl)-1-methy lethyl]amino]ethyl]-2,5-dimethylphenoxy]acetate (to be referred to as “compound 1” hereinafter), which had been dissolved in physiological saline and 2 equivalents of sodium hydroxide to a concentration of 10 μM and further diluted to various concentrations with physiological saline, was injected through the tube. After 1 hour from the injection, a solution (10 ml/kg) of Evans Blue (30 mg/kg) and capsaicin (0.3 mg/kg) dissolved in physiological saline containing 0.1% DMSO and 0.1% Tween 80 was administered through caudal vein. Precisely 5 minutes after the administration, the animal was sacrificed by cervical vertebrae dislocation to extract the bladder. After removing urine and blood from the extracted bladder, wet weight of the bladder was measured, and the extracted bladder was put into each well of a 96 well microplate into which formamide had been dispensed in 150 μl portions in advance. After soaking the bladder overnight in formamide, the pigment in the bladder tissue was determined by measuring absorbance of 100 μl of the supernatant at a wavelength of 620 nm. In addition, the amount of the Evans Blue pigment per 1 mg bladder wet weight was calculated. In this connection, a mouse in which physiological saline was injected into the bladder and the Evans Blue solution containing no capsaicin was administered thereto was used as the normal control.
# The results are shown in FIG. 1 by average value ± standard deviation. Inter-group significant difference between normal control group and capsaicin stimulation group was examined by student's t-test. Inter-group significant difference between compound 1 administration group and un-administration group was examined by a one dimensional analysis of variation and subsequent Dunnett's inter-multigroup comparison. A value of p<0.05 was regarded as significant.
# The pigment in the bladder tissue was determined in the same manner as in Test Example 1, except that Tolterodine was used instead of the compound 1 and Hartman's solution was used instead of the physiological saline and 2 equivalents of sodium hydroxide. In this connection, a mouse in which Hartman's solution was injected into the bladder and the Evans Blue solution containing no capsaicin was administered thereto was used as the normal control.
# [1] = female Balb/c mouse, injected into the bladder 1 hour before i.v. Evans Blue 30 mg/kg + capsaicin 0.3 mg/kg, various concentrations, vs solvent group
Compound,inhibition of capsaicin-sensitive sensory nerve (summary),amount of Evans Blue pigment in bladder tissue [1],"amount of Evans Blue pigment in bladder tissue (1 μM administration group, injected into the bladder, p<0.01 vs solvent group)"
"Cc1ccc(O)c([C@H](CCN(C(C)C)C(C)C)c2ccccc2)c1 [Tolterodine, reference compound]",did not inhibit the capsaicin-sensitive sensory nerve,Significant difference in the amount of Evans Blue pigment was not found,
"CCOC(=O)COc1cc(C)c(CCN[C@@H](C)[C@H](O)c2ccc(O)cc2)cc1C [compound 1, ethyl (−)-2-[4-[2-[[(1S,2R)-2-hydroxy-2-(4-hydroxyphenyl)-1-methylethyl]amino]ethyl]-2,5-dimethylphenoxy]acetate]",markedly inhibited the capsaicin-sensitive sensory nerve,concentration-dependently reduced the amount of Evans Blue pigment,significantly reduced

# From patent publication US20060100275A1, “Agent for treating interstitial cystitis” (KISSEI PHARMACEUTICAL CO., LTD., priority 2004, published 2006)
